Experiment [1] concerns the target T1, rHuTS (Homo sapiens, UniProt P04818).
T1 construct: His tag (N); made in house; host or cells: E. coli BL21 (DE3), pET-28a(+)
Briefly: Inhibition of rHuTS reactions by Tomudex and 5-FdUMP. The format is biochemical. The conditions noted are these: for activity at 0.5 µM: read-out: rate as % of No Inhibitor. The procedure:
M. Enzyme Assays and Kinetic Measurements. Thymidylate synthase assays were done in 96 well Costar UV transparent plates in a reaction volume of 200 μl, consisting of 40 mM Tris pH 7.5, 25 mM MgCl2, 1 mM EDTA, 25 mM-mercaptoethanol, 125 µM dUMP, and 65 μM N5, N1O-methylene tetrahydrofolate indicated. Tetrahydrofolate stock solutions were prepared by dissolving tetrahydrofolic acid (Sigma) directly into 0.2 M Tris pH 7.5, 0.5 M-mercaptoethanol; stock solutions were stored at −80° C. N5, N10-methylene tetrahydrofolate was prepared by adding 12 μl of 3.8% formaldehyde to 1 ml of a 0.65 mM solution of tetrahydrofolate and incubating for 5 minutes at 37° C. N5, N10-methylene tetrahydrofolate was kept on ice and used within 2 hours of preparation.
Conversion of BVdUMP to fluorescent product(s) by thymidylate synthase was measured in 200 µl thymidylate synthase reactions containing 125 µM BVdUMP in 96 well Dynex Microfluor Black “U” bottom microtiter plates using an excitation wavelength of 340 nm and emission wavelength of 595 nm. Fluorescence was measured with a Tecan Spectrafluor Plus fluorimeter.
Inhibition of rHuTS reactions by Tomudex and 5-FdUMP. Thymidylate synthase reactions containing enzyme inhibitors or cofactor were incubated at 30° C. as described in Materials and Methods, and the initial rates of the enzyme reaction were determined by measuring the increase in relative fluorescence units at 340 nm excitation, 595 nm emission for the BVdUMP reactions, or increase in A340 for the dUMP reaction.

In experiment [2] the test system is MCF7 (Breast) tumor cells. Briefly: alamarBlue growth inhibition, MCF7. The format is cell-based. Particulars: Homo sapiens. The procedure: (§1) J. Growth Inhibition Studies. Cells growing exponentially were transferred to 384-well flat bottom tissue culture plates. All cell types were plated at a density of 500 cells per well in 25 μL of complete medium (RPMI 1640+10% fetal bovine serum+antibiotics/antimycotics). After 24 hours (day 0), 25 μL of complete medium containing the experimental compounds over the dose range of 10^ñ3 to 10^ñ10 M were added in triplicate. […] 5 μL of the redox indicator, alamarBlue, was added to each well (10% v/v). After 4 hours incubation at 37° C., fluorescence was monitored at 535 nm excitation and 595 nm emission.
(§2) Concentration vs. relative fluorescence units (RFU) were plotted, and sigmoid curves were fit using the Hill equation.
(Alamar Blue is a resazurin reagent that responds to reducing activity.)

The subject of experiment [3] is normal and tumor cell types. Briefly: Tumor/normal cell screen, panel averages and therapeutic index. The format is cell-based, human. The procedure:
(§3) J. Growth Inhibition Studies. Cells growing exponentially were transferred to 384-well flat bottom tissue culture plates. All cell types were plated at a density of 500 cells per well in 25 μL of complete medium (RPMI 1640+10% fetal bovine serum+antibiotics/antimycotics). After 24 hours (day 0), 25 μL of complete medium containing the experimental compounds over the dose range of 10^ñ3 to 10^ñ10 M were added in triplicate. Drug exposure time was 120 hours (day 5), after which growth inhibition was assayed. 5 μL of the redox indicator, alamarBlue, was added to each well (10% v/v). After 4 hours incubation at 37° C., fluorescence was monitored at 535 nm excitation and 595 nm emission.
as §2
Assays were carried out as described in Methods, above. Therapeutic index is calculated as the ratio of the average IC50 for normal cells to the average IC50 for tumor cells. All assays were done at least three times.

Experiment [4] deals with TSL/HT1080 cells (TS Level 702%). Kind of experiment: alamarBlue growth inhibition, HT1080 clone with TS level 702%. Particulars: Homo sapiens, HT-1080, TSL/HT1080 (second line). The format is cell-based. The procedure: (§4) F. Cell lines and transfection. HT1080 cells were grown in PRMI1640 medium supplemented with 10% fetal calf serum, and transfected with GFP-TS expression vector. 48 hours after, transfection cells were tripsinized and replated in culture medium containing 750 μg/ml G418. After selection with G418 for two weeks, surviving cells were sorted based upon fluorescence expression. One clone with higher fluorescence expression (named as TSH/HT1080) and one clone with lower fluorescence expression (named as TSL/HT1080) were selected and expanded into cells lines. The stable HT1080 cells transfected with pEGFP-C3 were used as control.
(§5) G. Construction of GFP-TS expression vector. […]
(§6) J. Growth Inhibition Studies. […] After 4 hours incubation at 37° C., fluorescence was monitored at 535 nm excitation and 595 nm emission.
as §2
(§7) A cDNA encoding rHuTS was subcloned into ventor pEGFP-C3, in-frame with GFP. […] Individual cells were cloned based upon high or low fluorescence expression as described in Methods. *TS levels were determined by using Western blot analysis, the quantified expression levels were expressed as values relative to that of cell strain CCD18co.

The subject of experiment [5] is MCF7 TDX Tomudex-resistant breast cancer cells. Briefly: alamarBlue growth inhibition, MCF7 TDX. The format is cell-based. The conditions noted are these: Homo sapiens. The procedure: as §3, §2
(§8) O. Reversal of Resistance. The origin and characteristics of the human breast cancer MCF7 TDX cell line have been previously described (Drake, et al. (1996) Biochem. Pharmcol. 51(10): 1349-1355). Briefly, MCF-7 breast cancer cells were selected in vitro for resistance to Tomudex by continuous exposure to stepwise increases in TDX concentrations up to 2.0 μM.

Experiment [6] concerns H630R10 5FU-resistant colon tumor cells. Briefly: alamarBlue growth inhibition, H630R10. The format is cell-based, human. The procedure: as §1, §2
The test system of experiment [7] is CCD18co normal colon epthelial cell. Briefly: Thymidine rescue, alamar blue. The format is cell-based, human. The conditions noted are these: for rescue by thymidine: 10 uM thymidine; for IC50: Homo sapiens, CCD-18Co. An excerpt:
An additional approach was taken to understanding whether NB1011 might interfere with cell growth primarily by inactivating TS. This approach is based upon thymidine rescue of TS-blocked cells. […] For this reason, they survive only by scavenger mechanisms. One of the important scavenger mechanisms is utilization of extracellular thymidine. Thymidine incorporated by target cells can be converted to dTMP, usually by thymidine kinase, and thus continue DNA synthesis. Other pathways for use of exogenous thymidine have also been described If an important mechanism for NB1011 activity is via inhibition of endogenous TS, then the cytotoxicity should be relieved when thymidine is added to the cell culture media. For this experiment, a number of tumor cell lines were screened for their sensitivity to Tomudex and 5FdUrd, and ability to be rescued from these agents via thymidine supplementation. […] Experiments were carried out as described by (Patterson, et al. (1998) Cancer Res. 58: 2737-2740) with or without 10 uM thymidine, except that the alamar blue assay (see Materials and Methods) was employed to determine cytotoxicity.

Experiment [8] addresses T2, recombinant human thymidylate synthase (rHuTS) (Homo sapiens, UniProt P04818).
T2 construct: His tag (N); made in house; host or cells: E. coli BL21 (DE3), pET-28a(+)
Briefly: Enzyme kinetics of rHuTS with dUMP and BVdUMP. The format is biochemical. The procedure:
L. Enzyme Preparation. Cloned human thymidylate synthase plasmid pBCHTS was subcloned into E. coli. BL21 (DE3)/pET-28a(+) (Novagen) using the NdeI ñSacI insertion site, in order to add an amino terminal His tag. […] M. Enzyme Assays and Kinetic Measurements. […] Tetrahydrofolate stock solutions were prepared by dissolving tetrahydrofolic acid (Sigma) directly into 0.2 M Tris pH 7.5, 0.5 M-mercaptoethanol; stock solutions were stored at -80° C. […] N5, N10-methylene tetrahydrofolate was kept on ice and used within 2 hours of preparation. […] The catalytic efficiency of the enzyme (Kcat/Km) was calculated from the kinetic constants Km and Vmax.

The target of experiment [9] is T1, rHuTS. Briefly: Impact of folate inhibitors, cell-free rHuTS substrate utilization. The format is biochemical. The conditions noted are these: for remaining activity: MTX 140 μM, LV 140 μM or TDX 5 μM. The procedure:
M. Enzyme Assays and Kinetic Measurements. […] Tetrahydrofolate stock solutions were prepared by dissolving tetrahydrofolic acid (Sigma) directly into 0.2 M Tris pH 7.5, 0.5 M-mercaptoethanol; stock solutions were stored at −80° C. […] N5, N10-methylene tetrahydrofolate was kept on ice and used within 2 hours of preparation.
Cell-free assays using rHuTS, the appropriate substrate and other components were combined as described in Methods. […] Utilization of substrate (either BVdUMP or THF) was employed as a measure of reaction rate. The numbers indicate remaining activity.

In experiment [10] the test system is C/HT1080 cells. Kind of experiment: alamarBlue growth inhibition, C/HT1080 control. Particulars: Homo sapiens, HT-1080; C/HT1080, TS Level 100%. The format is cell-based. The procedure: as §4, §5, §6, §2, §7
Experiment [11] has as its system TSL/HT1080 cells (GFP-TS, lower expression). Kind of experiment: alamarBlue growth inhibition, TSL/HT1080. The conditions noted are these: Homo sapiens, HT-1080; TSL/HT1080, TS Level 409%. The format is cell-based. The procedure:
as §4, §5, §6, §2, §7

Experiment [12] has as its system MCF7 TDX/1011 cells. Kind of experiment: alamarBlue growth inhibition, MCF7 TDX/1011. Particulars: Homo sapiens. The format is cell-based. The procedure:
as §3, §2, §8

The mark [13] stands for this setting: BVdUMP − THF, inhibitor 500 nM, relative fluorescence units.

Where two headings read alike, the source gives them in different places. A value given as a limit tells only on which side of the number the result lay.

In general, IC50 refers to the midpoint of a concentration-inhibition curve. A high value points to weaker potency. As usually defined, the remaining activity is the activity still measured, relative to the control.

T1 sequence (P04818 whole entry): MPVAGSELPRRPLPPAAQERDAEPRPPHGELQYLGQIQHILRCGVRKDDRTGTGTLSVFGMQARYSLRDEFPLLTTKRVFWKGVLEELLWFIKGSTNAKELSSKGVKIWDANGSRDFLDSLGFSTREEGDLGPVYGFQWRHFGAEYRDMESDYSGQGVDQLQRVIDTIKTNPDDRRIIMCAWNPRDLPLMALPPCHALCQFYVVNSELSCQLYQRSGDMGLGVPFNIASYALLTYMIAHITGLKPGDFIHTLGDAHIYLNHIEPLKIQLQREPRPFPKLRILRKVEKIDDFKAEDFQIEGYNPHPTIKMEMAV
T2 sequence (P04818 whole entry): as above

As to `O=c1[nH]c(=O)n([C@H]2C[C@H](O)[C@@H](COP(=O)(O)O)O2)cc1F` [5-FdUMP], the “initial rate of rHuTS reaction” value was found to be 44 ± 2 RFU/min in experiment [1] (BVdUMP + THF, inhibitor 500 nM); 93 ± 13 in experiment [1] (setting [13]); 290 ± 70 nmol/min in [1] (dUMP + THF, inhibitor 500 nM).

Take `O=c1[nH]cc(F)c(=O)[nH]1` [5FU, 5-fluorouracil]: the IC50 in experiment [2] was 10 µM; in experiment [4], 3.5 µM; in [5], 32 µM. Further, in experiment [3] (overall), the “more toxic to normal cells than to tumor cells” value came to 3 fold. Further, the “Therapeutic index (N/T)” value in experiment [3] (ratio of average IC50 normal cells to average IC50 tumor cells) stood at 0.30.

As for `O=c1[nH]c(=O)n([C@H]2C[C@H](O)[C@@H](CO)O2)cc1F` [5FUdR, 5-fluoro-2′-deoxyuridine], in [6], the “more toxic to normal colon cells (CCD18co) than to 5FU-resistant H630R10 tumor cells” value is “about 18 fold”. Also, the rescue by thymidine result in experiment [7] is “greater than 590 fold”.

`O=c1[nH]c(=O)n([C@H]2C[C@H](O)[C@@H](COP(=O)(O)O)O2)cc1/C=C/Br` [BVdUMP, (E)5-(2-Bromovinyl)-2′-deoxyuridine 5′-monophosphate]: the “type of inhibition with dUMP in rHuTS” value in experiment [8] (20 μM BVdUMP, dUMP 10 to 100 μM) is reported as “competitive”. In addition, the “increase in catalytic efficiency of BVdUMP conversion, human enzyme vs L. casei enzyme” value in experiment [8] (relative to endogenous substrate dUMP) was above 6.4 fold. Further, the “initial rate of rHuTS reaction” value in [1] (BVdUMP + THF, No Inhibitor, 30° C.) is on record as 109 ± 16 RFU/min; in experiment [1] (BVdUMP − THF, No Inhibitor, relative fluorescence units), 75 ± 11. In addition, in [9] (BVdUMP, w/o THF, Inhibitor None), the “substrate utilization rate relative to reaction with THF” value came out at 138%.

`Nc1nc2c(c(=O)[nH]1)N(C=O)C(CNc1ccc(C(=O)N[C@@H](CCC(=O)O)C(=O)O)cc1)CN2` (stereo partly shown) [LV, 5-formyltetrahydrofolate]: the remaining activity amounted to 97% in experiment [9] (BVdUMP, w/o THF); 17% in experiment [9] (BVdUMP, with THF); 77% in [9] (dUMP, with THF).

Take `Cc1nc2ccc(CN(C)c3ccc(C(=O)N[C@@H](CCC(=O)O)C(=O)O)s3)cc2c(=O)[nH]1` [Tomudex]: the “initial rate of rHuTS reaction” value in [1] (BVdUMP + THF, inhibitor 500 nM) is 67 ± 3 RFU/min; in [1] (setting [13]), 34 ± 3; in experiment [1] (dUMP + THF, inhibitor 500 nM), 690 ± 40 nmol/min. For the same compound, the activity at 0.5 µM was found to be 61% in [1] (BVdUMP + THF, inhibitor 500 nM); 45% in [1] (BVdUMP − THF, inhibitor 500 nM); 46% in experiment [1] (dUMP + THF, inhibitor 500 nM). For the same compound, the remaining activity is listed as 25% in experiment [9] (BVdUMP, w/o THF); 0% in [9] (BVdUMP, with THF); 18% in [9] (dUMP, with THF). Also, the 50% inhibitory concentration (IC50) in [2] was 0.026 µM; in experiment [10] it was 3.6 µM; in experiment [11], 24 µM; in [4], 153 µM; in experiment [5] it was above 10 µM; in experiment [12], 0.041 µM. Moreover, the IC50 in experiment [7] (with 10 uM thymidine) worked out at 0.095 µM; in experiment [7] (without thymidine), 0.0065 µM. Also, the rescue by thymidine in [7] was found to be 15 fold.

Consider `O=c1ccn([C@H]2C[C@H](O)[C@@H](COP(=O)(O)O)O2)c(=O)[nH]1` [dUMP, Deoxguridine Monophosphate], for which the “initial rate of rHuTS reaction” value in [1] (dUMP + THF, No Inhibitor, A340) was 1500 ± 20 nmol/min.

The record behind these values is patent publication US7419968B1, “Methods for treating therapy-resistant tumors” (Celmed Oncology (USA), Inc., priority 1999, dated 2008).
